Results: patent US4204063A, “N(Aminoalkyl)-naphthalimides and their derivatives” (priority 1977, dated 1980)
Values after ≈ are worked out from the molar mass of the structure shown.

Each compound was assayed on He-La cells (assay: cytotoxic activity on He-La cells (inhibition of cellular growth, protein determination)). Conditions: Homo sapiens, HeLa, 72 h, read-out: ID50 (inhibitory dose 50, dose which inhibits cellular growth by 50%).
Format: cell-based
Description: Testing commences using a culture having approximately 125,000 cells per milliliter. They are dispersed with trypsin and are maintained in suspension by stirring until the moment they are placed in tubes.
After 72 hours the results are read.

Structure (SMILES)	IC50
Nc1cc2c3c(cccc3c1)C(=O)N(CCN1CCCC1)C2=O [Example 11, N-[2-(1-pyrrolidino)-ethyl]-3-amino-1,8-naphthalimide]	1.5 µg/mL (≈ 4.85 µM)

Same assay, conditions: Homo sapiens, HeLa; He-La cells, monolayer, 72 hours, protein determination (modified Lowry); read-out: ID50 (inhibitory dose 50, dose which inhibits cellular growth by 50%)

Structure (SMILES)	IC50
CN(C)CCCN1C(=O)c2cccc3cc([N+](=O)[O-])cc(c23)C1=O [Example 1, N-(3-dimethylaminopropyl)-3-nitro-1,8-naphthalimide]	1 µg/mL (≈ 3.05 µM)
CCN(CC)CCCN1C(=O)c2cccc3cc([N+](=O)[O-])cc(c23)C1=O [Example 2, N-(3-diethylaminopropyl)-3-nitro-1,8-naphthalimide]	5 µg/mL (≈ 14.1 µM)
O=C1c2cccc3cc([N+](=O)[O-])cc(c23)C(=O)N1CCN1CCOCC1 [Example 3, N-2-(N-morpholino)-ethyl-3-nitro-1,8-naphthalimide]	20 µg/mL (≈ 56.3 µM)
CCN1CCCC(N2C(=O)c3cccc4cc([N+](=O)[O-])cc(c34)C2=O)C1 (stereo not drawn) [Example 4, N-3-(1-ethylpiperidino)-3-nitro-1,8-naphthalimide]	6 µg/mL (≈ 17 µM)
CN1CCN(CCCN2C(=O)c3cccc4cc([N+](=O)[O-])cc(c34)C2=O)CC1 [Example 5, N-3-(4-methyl-1-piperazino)-propyl-3-nitro-1,8-naphthalimide]	2 µg/mL (≈ 5.23 µM)
CN(C)N1C(=O)c2cccc3cc([N+](=O)[O-])cc(c23)C1=O [Example 6, N-dimethylamino-3-nitro-1,8-naphthalimide]	> 100 µg/mL
O=C1c2cccc3cc([N+](=O)[O-])cc(c23)C(=O)N1N1CCCC1 [Example 7, N-(1-pyrrolidino)-3-nitro-1,8-naphthalimide]	> 100 µg/mL
NC(=O)NN1C(=O)c2cccc3cc([N+](=O)[O-])cc(c23)C1=O [Example 8, N-ureyl-3-nitro-1,8-naphthalimide]	> 100 µg/mL
CN(C)CCN1C(=O)c2cccc3cc(N)cc(c23)C1=O [Example 9]	2.5 µg/mL (≈ 8.82 µM)
CCN(CC)CCN1C(=O)c2cccc3cc(N)cc(c23)C1=O [Example 10, N-(2-diethylaminoethyl)-3-amino-1,8-naphthalimide]	3 µg/mL (≈ 9.63 µM)
Nc1cc2c3c(cccc3c1)C(=O)N(CCN1CCCCC1)C2=O [Example 12, N-[2-(1-piperidino)-ethyl]-3-amino-1,8-naphthalimide]	8 µg/mL (≈ 24.7 µM)
Nc1cc2c3c(cccc3c1)C(=O)N(CCN1CCOCC1)C2=O [Example 13, N-[2-(1-morpholino)-ethyl]-3-amino-1,8-naphthalimide]	10 µg/mL (≈ 30.7 µM)
CN(C)CCCN1C(=O)c2cccc3cc(N)cc(c23)C1=O [Example 14, N-(3-dimethylaminopropyl)-3-amino-1,8-naphthalimide]	5 µg/mL (≈ 16.8 µM)
CCN(CC)CCCN1C(=O)c2cccc3cc(N)cc(c23)C1=O [Example 15, N-(3-diethylaminopropyl)-3-amino-1,8-naphthalimide]	25 µg/mL (≈ 76.8 µM)
CN1CCN(CCCN2C(=O)c3cccc4cc(N)cc(c34)C2=O)CC1 [Example 16, N-[3-(4-methyl-1-piperazino)-propyl]-3-amino-1,8-naphthalimide]	10 µg/mL (≈ 28.4 µM)
CN(C)N1C(=O)c2cccc3cc(N)cc(c23)C1=O [Example 17, N-dimethylamino-3-amino-1,8-naphthalimide]	100 µg/mL (≈ 392 µM)

Structure (SMILES)	IC50
CN(C)CCN1C(=O)c2cccc3cc(Cl)cc(c23)C1=O [Example 18, N-(2-dimethylaminoethyl)-3-chloro-1,8-naphthalimide]	0.8 µg/mL (≈ 2.64 µM)
O=C1c2cccc3cc(Cl)cc(c23)C(=O)N1CCN1CCCC1 [Example 19, N-[2-(1-pyrrolidino)-ethyl]-3-chloro-1,8-naphthalimide]	1.5 µg/mL (≈ 4.56 µM)
O=C1c2cccc3cc(Cl)cc(c23)C(=O)N1CCN1CCCCC1 [Example 20, N-[2-(1-piperidino)-ethyl]-3-chloro-1,8-naphthalimide]	3.5 µg/mL (≈ 10.2 µM)
O=C1c2cccc3cc(Cl)cc(c23)C(=O)N1CCN1CCOCC1 [Example 21, N-[2-(1-morpholino)-ethyl]-3-chloro-1,8-naphthalimide]	100 µg/mL (≈ 290 µM)
CN(C)CCCN1C(=O)c2cccc3cc(Cl)cc(c23)C1=O [Example 22, N-(3-dimethylaminopropyl)-3-chloro-1,8-naphthalimide]	2 µg/mL (≈ 6.31 µM)
CN(C)CCN1C(=O)c2cccc3cc(O)cc(c23)C1=O [Example 23, N-(2-dimethylaminoethyl)-3-hydroxy-1,8-naphthalimide]	3 µg/mL (≈ 10.6 µM)
O=C1c2cccc3cc(O)cc(c23)C(=O)N1CCN1CCCC1 [Example 24, N-[2-(1-pyrrolidino)-ethyl]-3-hydroxy-1,8-naphthalimide]	3.5 µg/mL (≈ 11.3 µM)
O=C1c2cccc3cc(O)cc(c23)C(=O)N1CCN1CCOCC1 [Example 25, N-[2-(1-morpholino)-ethyl]-3-hydroxy-1,8-naphthalimide]	100 µg/mL (≈ 306 µM)
COc1cc2c3c(cccc3c1)C(=O)N(CCN(C)C)C2=O [Example 26, N-(2-dimethylaminoethyl)-3-methoxy-1,8-naphthalimide]	1.5 µg/mL (≈ 5.03 µM)
COc1cc2c3c(cccc3c1)C(=O)N(CCN1CCCC1)C2=O [Example 27, N-[2-(1-pyrrolidino)-ethyl]-3-methoxy-1,8-naphthalimide]	0.75 µg/mL (≈ 2.31 µM)
CCOC(=O)Nc1cc2c3c(cccc3c1)C(=O)N(CCN(C)C)C2=O [Example 28, N-(dimethylaminoethyl)-3-ethoxycarbonylamino-1,8-naphthalimide]	10 µg/mL (≈ 28.1 µM)
CCOC(=O)Nc1cc2c3c(cccc3c1)C(=O)N(CCN1CCCC1)C2=O [Example 29, N-[2-(1-pyrrolidino)-ethyl]-3-ethoxycarbonylamino-1,8-naphthalimide]	10 µg/mL (≈ 26.2 µM)
CC(=O)Nc1cc2c3c(cccc3c1)C(=O)N(CCN(C)C)C2=O [Example 30, N-(2-dimethylaminoethyl)-3-acetylamino-1,8-naphthalimide]	4 µg/mL (≈ 12.3 µM)
CC(=O)Nc1cc2c3c(cccc3c1)C(=O)N(CCN1CCCC1)C2=O [Example 31, N-[2-(1-pyrrolidino)-ethyl]-3-acetylamino-1,8-naphthalimide]	5 µg/mL (≈ 14.2 µM)
O=C1c2cccc3cc(S(=O)(=O)O)cc(c23)C(=O)N1CCN1CCCC1 [Example 32, N-[2-(1-pyrrolidino)ethyl]-3-sulfo-1,8-naphthalimide]	> 100 µg/mL
CN(C)CCN1C(=O)c2cccc3cc(C(C)(C)C)cc(c23)C1=O [Example 33, N-(2-dimethylaminoethyl)-3-tert-butyl-1,8-naphthalimide]	14 µg/mL (≈ 43.2 µM)
